For assay [1], the system named is Polaromonas sp.-derived PobA (PoPobA), protocatechuic acid 5-hydroxylase, wild type, SEQ ID NO: 22. Description: Reaction kinetic analysis of PoPobA. It is filed as biochemical. As to conditions: 200 µM NADPH, 10 µM FAD, pH 7.9, 25° C., 340 nm. The source says: By the same procedures, a target pRSF-PoPobA plasmid was obtained based on the gene sequence information of Polaromonas sp.-derived PobA (PoPobA) (SEQ ID NO: 7). The base sequences of primers 5 and 6 used are shown below.

Assay [2] relates to Hydrogenophaga sp.-derived PobA (HyPobA), protocatechuic acid 5-hydroxylase, wild type, SEQ ID NO: 21. As to the kind of experiment: Reaction kinetic analysis of HyPobA. It is filed as biochemical. Conditions: 200 µM NADPH, 10 µM FAD, pH 7.9, 25° C., 340 nm. The source says: By the same procedures, a target […] plasmid was obtained based on the gene sequence information of Hydrogenophaga sp.-derived PobA (HyPobA) (SEQ ID NO: 4). The base sequences of primers 3 and 4 used are shown below.

The target of assay [3] is Pseudomonas aeruginosa-derived PobA (PaPobA), p-hydroxybenzoate hydroxylase, wild type, SEQ ID NO: 28 (Pseudomonas aeruginosa, UniProt P20586). As to the kind of experiment: Reaction kinetic analysis of PaPobA (comparison). Conditions: PCA substrate (2 mM), 200 µM NADPH, 10 µM FAD, pH 7.9, 25° C., 340 nm. From the text:
A polynucleotide encoding Pseudomonas aeruginosa-derived PobA was artificially synthesized based on the gene sequence information of Pseudomonas aeruginosa-derived PobA (PaPobA) (SEQ ID NO: 14).

In assay [4] the target is Hylemonella gracilis-derived PobA (HgPobA, SEQ ID NO: 20) variant HgPobA-TY, T302A/Y393F (gene SEQ ID NO: 37) (Hylemonella gracilis, UniProt F3KT36, T302A/Y393F). As to the kind of experiment: Reaction kinetic analysis of HgPobA-TY.
Description: The cell-free extracts were subjected to a HisTrap HP column (GE healthcare) which was equilibrated with an equilibration buffer (20 mM Tris-HCl buffer (pH 7.9), 20 mM imidazole), and then fractions eluted with an eluent (20 mM Tris-HCl buffer (pH 7.9), 500 mM imidazole) were collected.
The protein concentrations of the purified enzyme liquids were measured using Bio-Rad Protein Assay Dye Reagent Concentrate (Bio-Rad, USA), and the purified enzyme liquids were diluted to 1 of mg/mL with a buffer.
The mark [5] stands for this setting: read-out: Km^app (pHBA), pHBA substrate.
Where [6] appears, read: PCA substrate, read-out: Km^app (PCA).

The structures appear in SMILES notation. Read-outs that look alike come from different tables or passages of the source.

Chain of Hylemonella gracilis-derived PobA (HgPobA, SEQ ID NO: 20) variant HgPobA-TY, T302A/Y393F (gene SEQ ID NO: 37) (F3KT36 1-402 T302A/Y393F): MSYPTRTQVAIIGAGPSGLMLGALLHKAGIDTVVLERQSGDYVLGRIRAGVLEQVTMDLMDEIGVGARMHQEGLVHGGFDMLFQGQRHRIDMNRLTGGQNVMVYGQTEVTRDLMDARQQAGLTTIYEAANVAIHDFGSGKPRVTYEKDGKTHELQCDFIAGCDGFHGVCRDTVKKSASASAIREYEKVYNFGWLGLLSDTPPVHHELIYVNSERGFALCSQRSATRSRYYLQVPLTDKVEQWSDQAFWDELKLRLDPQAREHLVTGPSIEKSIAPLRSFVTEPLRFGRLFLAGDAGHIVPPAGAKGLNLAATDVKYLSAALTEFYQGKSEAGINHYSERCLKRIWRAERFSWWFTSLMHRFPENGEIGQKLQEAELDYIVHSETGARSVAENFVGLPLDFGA
Chain of Pseudomonas aeruginosa-derived PobA (PaPobA), p-hydroxybenzoate hydroxylase, wild type, SEQ ID NO: 28 (P20586 whole entry): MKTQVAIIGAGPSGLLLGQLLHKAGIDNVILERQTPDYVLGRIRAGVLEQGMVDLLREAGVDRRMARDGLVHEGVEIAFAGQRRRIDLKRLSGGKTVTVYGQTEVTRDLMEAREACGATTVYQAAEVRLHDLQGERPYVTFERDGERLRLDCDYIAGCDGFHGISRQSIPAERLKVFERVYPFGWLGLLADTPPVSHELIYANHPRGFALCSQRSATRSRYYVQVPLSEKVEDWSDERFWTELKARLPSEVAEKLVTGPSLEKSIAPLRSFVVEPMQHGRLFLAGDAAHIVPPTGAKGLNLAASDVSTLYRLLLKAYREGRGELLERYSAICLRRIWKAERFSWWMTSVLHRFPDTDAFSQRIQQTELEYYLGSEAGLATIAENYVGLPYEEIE

Broadly, the Km is the substrate concentration at which the rate is half of its maximum. As for `O=C(O)c1ccc(O)cc1` [pHBA, p-hydroxybenzoic acid], the Km in assay [1] (setting [5]) stood at 340 µM; in assay [2] (setting [5]), 56 µM.
Regarding `O=C(O)c1ccc(O)c(O)c1` [PCA, protocatechuic acid], the “kcat^app (PCA)” value in assay [3] came to 0.50 s⁻¹; in assay [1] (PCA substrate (2 mM)), 2.7 s⁻¹; in assay [2] (PCA substrate (2 mM)), 6.6 s⁻¹; in assay [4] (PCA substrate (2 mM), 200 µM NADPH, 10 µM FAD, pH 7.9, 25° C., 340 nm), 1.8 s⁻¹. In addition, the values for the Km in assay [1] (setting [6]) and in assay [2] (setting [6]) were 920 µM and 570 µM, respectively. In addition, in assay [4] (HgPobA-TY versus PaPobA), the “kcat value for PCA relative to PaPobA” value is on record as 3.6 times.
